From patent US10986835B2, “Use of 9-tricosene to control Drosophila suzukii” (Globachem NV, priority 2016, dated 2021)

Key:
[1] = test system: Drosophila suzukii; assay: Behavior assay: courtship behavior of wild type 4-day-old males towards perfumed flies; format: in vivo; conditions: compound in n-hexane painted onto abdomen; 4 tested conditions (perfumed 1-day-old females, 1-day-old males, 4-day-old females, 4-day-old males) paired with wild type 4-day-old males; filmed two hours; FIG. 1
Procedure: (§1) Drosophila suzukii adults were caught in the wild (Sint-Truiden, Limburg, Belgium). The flies were reared in quarantined facilities at 21° C. on Cornmeal-sucrose-yeast-agar medium.
(§2) All flies were collected within 12 hours of eclosing, after which they were used to make one-day-old samples or aged to four days old. The four-day-old socially nave flies were aged separated from the other sex, contrary to the socially experienced flies, which were aged, mixed with the other sex.
(§3) N-hexane (95%), n-heneicosane (98%), n-tricosane (98%), (Z)-7-tricosene (98%) and (Z)-9-tricosene (97%) were bought from Thermo-Fischer and Sigma Aldrich. (Z)-5-tricosene (99%) and 2-methyloctacosane (95%) were synthesized by a hired company, Ecosynth (Gent, Belgium). These compounds were dissolved in n-hexane (95%) and painted onto the abdomen of Drosophila suzukii flies using number 2 paintbrushes. The four-day-old flies were perfumed 24 hours prior to testing, one-day-old flies 1 hour prior to testing.
Behavior assays were performed in a room with regulated temperature (21° C.) and always at the same time (10 h30). The perfumed Drosophila suzukii flies were put individually with a wild type four-day-old Drosophila suzukii male in a circular arena (3 cm diameter). Every couple was filmed for two hours, due to the low activity rate of the species, using Sony Handycams CX240. Subsequently these videos were analyzed for courtship behavior and copulation based on Mazzoni et al. 2013 (Plos One 8(11): e80708). The behavioral data was analyzed using a contingency table and followed by t-tests, as well as one-way ANOVA tests for the continuous data.
Behavior experiments were performed as follows. Four different conditions of flies were perfumed: one-day-old females, one-day-old males, four-day-old females and four-day-old males. These perfumed flies were paired with wild type four-day-old males. Subjects were scored for both courtship modules as well as copulation. As a control the solvent for the perfumes (n-hexane) was used.

[2] = test system: Drosophila suzukii; assay: Behavior assay: copulation between wild type 4-day-old males and perfumed 4-day-old females; format: in vivo; conditions: perfumed four-day-old females paired with wild type four-day-old males; filmed two hours; FIG. 3
Procedure: as §1, §2
as §3, with “The four-day-old flies were perfumed 24 hours prior to testing, one-day-old flies 1 hour prior to testing.” left out
Behavior assays were performed in a room with regulated temperature (21° C.) and always at the same time (10 h30). […] Subsequently these videos were analyzed for courtship behavior and copulation based on Mazzoni et al. 2013 (Plos One 8(11): e80708). The behavioral data was analyzed using a contingency table and followed by t-tests, as well as one-way ANOVA tests for the continuous data.
Behavior experiments were performed as follows. […] Subjects were scored for both courtship modules as well as copulation. […]

CCCCCCCCCCCCCCCCCCCCCCC [n-tricosane]
effect on occurrence of courtship [1]: no significant differences

CCCCCCCCCCCCCCCCCCCCCCCCCCC(C)C [2-methyloctacosane]
effect on occurrence of courtship [1]: no significant differences

CCCCCC/C=C\CCCCCCCCCCCCCCC [(Z)-7-tricosene]
effect on occurrence of courtship [1]: no significant differences | effect on occurrence of copulation [2]: significantly decreased

CCCCCCCC/C=C\CCCCCCCCCCCCC [(Z)-9-tricosene]
effect on occurrence of courtship [1]: no significant differences | effect on occurrence of copulation [2]: significantly decreased

CCCCCCCCCCCCCCCCCCCCC [n-heneicosane]
effect on occurrence of courtship [1]: no significant differences

CCCC/C=C\CCCCCCCCCCCCCCCCC [(Z)-5-tricosene]
effect on occurrence of courtship [1]: no significant differences
